Measured values reported in the supplement of paper PMC8617591.

How the values were obtained:
[1] = tested on: Mycobacterium tuberculosis Erdman (autoluminescent); experiment: total FIC50 (Loewe) at 50% inhibition, three-drug combination (log2); higher = more antagonistic
Procedure: (§1)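 DiaMOND equipotent three-drug combination dose responses (10 doses, 1.5- or 2-fold spacing, centred on IC90) against autoluminescent M. tuberculosis Erdman in 8 in vitro models. Read-out is OD600, or luminescence for the intracellular and dormancy models, normalised to untreated wells. Hill-fit Einf, AUC25 and GRinf are potency metrics; FIC50 and FIC90 are total Loewe fractional inhibitory concentrations as log2 (negative = synergy).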

[2] = tested on: Mycobacterium tuberculosis Erdman (autoluminescent); experiment: Einf, fitted maximum growth inhibition of three-drug combination (fraction); higher = stronger maximal inhibition
Procedure: as §1

[3] = tested on: Mycobacterium tuberculosis Erdman (autoluminescent); experiment: AUC25, normalised area under dose response up to IC25 (three-drug combination) (fraction (0-1)); higher = more potent at low dose
Procedure: as §1

[4] = tested on: Mycobacterium tuberculosis Erdman (autoluminescent); experiment: GRinf, maximum normalised growth rate inhibition (three-drug combination) (unitless (-1 to 1)); higher = less effect (negative = killing)
Procedure: as §1

[5] = tested on: Mycobacterium tuberculosis Erdman (autoluminescent); experiment: total FIC90 (Loewe) at 90% inhibition, three-drug combination (log2); higher = more antagonistic
Procedure: as §1

CC[C@@H](CO)NCCN[C@@H](CC)CO [ethambutol] + CC(=O)NC[C@H]1CN(c2ccc(N3CCOCC3)c(F)c2)C(=O)O1 [linezolid] + COc1c(N2C[C@@H]3CCCN[C@@H]3C2)c(F)cc2c(=O)c(C(=O)O)cn(C3CC3)c12 [moxifloxacin]
Conditions | AUC25, [3] | Einf, [2] | GRinf, [4] | total FIC50, [1] | total FIC90, [5]
in vitro model: acidic pH 5.7, time point: constant (~7 days, model-specific) | 0.121 | 0.782 | -0.587 | 0.0272 | –
in vitro model: acidic pH 5.7, time point: terminal (~4-5 doublings, model-specific) | 0.101 | 0.956 | -0.36 | 1.25 | 0.487
in vitro model: intracellular J774, time point: constant = terminal | – | 0.966 | -0.388 | – | -0.395

Conditions | AUC25, [3] | Einf, [2] | GRinf, [4] | total FIC50, [1] | total FIC90, [5]
in vitro model: butyrate, time point: constant (~7 days, model-specific) | 0.0929 | 0.887 | 0.105 | 0.436 | –
in vitro model: butyrate, time point: terminal (~4-5 doublings, model-specific) | 0.0678 | 0.938 | 0.104 | 0.501 | 0.397
in vitro model: cholesterol 0.05 mM, time point: constant (~7 days, model-specific) | 0.149 | 0.725 | -0.165 | -0.0271 | –
in vitro model: cholesterol 0.05 mM, time point: terminal (~4-5 doublings, model-specific) | 0.162 | 0.932 | -0.548 | 7.63 | –
in vitro model: cholesterol-high 0.2 mM, time point: constant (~7 days, model-specific) | 0.111 | 0.942 | -0.318 | 0.596 | –
in vitro model: cholesterol-high 0.2 mM, time point: terminal (~4-5 doublings, model-specific) | 0.109 | 1 | -0.97 | 0.421 | 1
in vitro model: dormancy (butyrate + nitrate, low O2), time point: constant (~7 days, model-specific) | 0.0953 | 0.849 | 0.414 | 0.25 | –
in vitro model: dormancy (butyrate + nitrate, low O2), time point: terminal (~4-5 doublings, model-specific) | 0.0816 | 0.967 | -0.0859 | -0.563 | 0.576
in vitro model: standard 7H9 glycerol, time point: constant = terminal | 0.0554 | 0.958 | -0.3 | 0.808 | 0.685
in vitro model: valerate, time point: constant (~7 days, model-specific) | 0.0828 | 0.872 | 0.0258 | 0.39 | –
in vitro model: valerate, time point: terminal (~4-5 doublings, model-specific) | 0.0583 | 0.938 | -0.0184 | 0.654 | 0.845

CC[C@@H](CO)NCCN[C@@H](CC)CO [ethambutol] + CC(=O)NC[C@H]1CN(c2ccc(N3CCOCC3)c(F)c2)C(=O)O1 [linezolid] + NC(=O)c1cnccn1 [pyrazinamide]
Conditions | AUC25, [3] | Einf, [2] | GRinf, [4] | total FIC50, [1] | total FIC90, [5]
in vitro model: acidic pH 5.7, time point: constant (~7 days, model-specific) | 0.087 | 0.835 | -0.314 | 0.0711 | –
in vitro model: acidic pH 5.7, time point: terminal (~4-5 doublings, model-specific) | 0.0645 | 0.963 | -0.245 | 1.01 | -1.27
in vitro model: intracellular J774, time point: constant = terminal | – | 0.966 | -0.526 | – | 0.433

Conditions | AUC25, [3] | Einf, [2] | GRinf, [4] | total FIC50, [1] | total FIC90, [5]
in vitro model: butyrate, time point: constant (~7 days, model-specific) | 0.114 | 0.891 | 0.0745 | 0.217 | –
in vitro model: butyrate, time point: terminal (~4-5 doublings, model-specific) | 0.0865 | 0.932 | 0.0716 | 0.189 | 0.638
in vitro model: cholesterol 0.05 mM, time point: constant (~7 days, model-specific) | 0.16 | 0.785 | -0.0274 | – | –
in vitro model: cholesterol 0.05 mM, time point: terminal (~4-5 doublings, model-specific) | 0.168 | 0.977 | -0.696 | -1.33 | –
in vitro model: cholesterol-high 0.2 mM, time point: constant (~7 days, model-specific) | 0.101 | 0.944 | -0.667 | 0.563 | –
in vitro model: cholesterol-high 0.2 mM, time point: terminal (~4-5 doublings, model-specific) | 0.11 | 1 | -0.959 | 0.303 | 0.985
in vitro model: dormancy (butyrate + nitrate, low O2), time point: constant (~7 days, model-specific) | 0.107 | 0.75 | 0.388 | 0.819 | –
in vitro model: dormancy (butyrate + nitrate, low O2), time point: terminal (~4-5 doublings, model-specific) | 0.102 | 0.964 | 0.0543 | 0.154 | 0.627
in vitro model: standard 7H9 glycerol, time point: constant = terminal | 0.071 | 0.86 | 0.221 | 1.2 | –
in vitro model: valerate, time point: constant (~7 days, model-specific) | 0.0934 | 0.864 | 0.000637 | 0.255 | –
in vitro model: valerate, time point: terminal (~4-5 doublings, model-specific) | 0.0462 | 0.909 | 0.102 | 0.697 | –

CC[C@@H](CO)NCCN[C@@H](CC)CO [ethambutol] + CC(=O)NC[C@H]1CN(c2ccc(N3CCOCC3)c(F)c2)C(=O)O1 [linezolid] + O=[N+]([O-])c1cn2c(n1)OC[C@@H](OCc1ccc(OC(F)(F)F)cc1)C2 [pretomanid]
Conditions | AUC25, [3] | Einf, [2] | GRinf, [4] | total FIC50, [1] | total FIC90, [5]
in vitro model: acidic pH 5.7, time point: constant (~7 days, model-specific) | 0.134 | 0.896 | -0.388 | 0.236 | –
in vitro model: acidic pH 5.7, time point: terminal (~4-5 doublings, model-specific) | 0.0878 | 0.967 | -0.322 | 1.28 | 1.01
in vitro model: intracellular J774, time point: constant = terminal | – | 0.975 | -0.561 | – | 0.0435

Conditions | AUC25, [3] | Einf, [2] | GRinf, [4] | total FIC50, [1] | total FIC90, [5]
in vitro model: butyrate, time point: constant (~7 days, model-specific) | 0.0842 | 0.911 | 0.0181 | 0.478 | –
in vitro model: butyrate, time point: terminal (~4-5 doublings, model-specific) | 0.0626 | 0.944 | 0.0489 | 0.404 | 0.144
in vitro model: cholesterol 0.05 mM, time point: constant (~7 days, model-specific) | 0.12 | 0.731 | -0.14 | -0.149 | –
in vitro model: cholesterol 0.05 mM, time point: terminal (~4-5 doublings, model-specific) | 0.146 | 0.921 | -0.207 | -1.06 | –
in vitro model: cholesterol-high 0.2 mM, time point: constant (~7 days, model-specific) | 0.0978 | 0.905 | -0.175 | 0.567 | –
in vitro model: cholesterol-high 0.2 mM, time point: terminal (~4-5 doublings, model-specific) | 0.104 | 1 | -0.831 | 0.339 | 0.921
in vitro model: dormancy (butyrate + nitrate, low O2), time point: constant (~7 days, model-specific) | 0.142 | 0.891 | -0.209 | 1.03 | –
in vitro model: dormancy (butyrate + nitrate, low O2), time point: terminal (~4-5 doublings, model-specific) | 0.0963 | 0.981 | -0.881 | -0.0848 | -0.19
in vitro model: standard 7H9 glycerol, time point: constant = terminal | 0.0762 | 0.904 | 0.0621 | 0.648 | –
in vitro model: valerate, time point: constant (~7 days, model-specific) | 0.153 | 0.901 | -0.16 | -0.171 | –
in vitro model: valerate, time point: terminal (~4-5 doublings, model-specific) | 0.115 | 0.923 | -0.0362 | -0.419 | 2.13
